Read-outs that look alike come from different tables or passages of the source.
Legend:
[1] = system: human CD4-positive T-cells; experiment: T-cell viability/proliferation (assay number 1299); type: cell-based
[2] = biological target: enzymes (Bioprint panel) (Homo sapiens, UniProt P43403); experiment: biochemical; settings: ZAP70 kinase (h); 10 μM; read-out: % Inhibition of Control Values
[3] = biological target: T1, enzymes (Bioprint panel) (Homo sapiens, UniProt O00408); experiment: biochemical; settings: PDE2A1 (h); 10 μM; read-out: % Inhibition of Control Values
T1 construct: other: PDE2A1 (h); 10 μM; PDE2A1 (h)

[4] = biological target: enzymes (Bioprint panel) (Homo sapiens, UniProt P06241); experiment: biochemical; settings: Fyn kinase (h); 10 μM; read-out: % Inhibition of Control Values
[5] = biological target: enzymes (Bioprint panel) (Homo sapiens, UniProt P56817); experiment: biochemical; settings: BACE-1 (h) (beta -secretase); 10 μM; read-out: % Inhibition of Control Values
[6] = biological target: enzymes (Bioprint panel) (Homo sapiens, UniProt P12821); experiment: biochemical; settings: ACE (h); 10 μM; read-out: % Inhibition of Control Values
[7] = biological target: enzymes (Bioprint panel) (Homo sapiens, UniProt P22303); experiment: biochemical; settings: acetylcholinesterase (h); 10 μM; read-out: % Inhibition of Control Values
Sequence of enzymes (Bioprint panel) (Homo sapiens, UniProt P22303) (P22303 32-614): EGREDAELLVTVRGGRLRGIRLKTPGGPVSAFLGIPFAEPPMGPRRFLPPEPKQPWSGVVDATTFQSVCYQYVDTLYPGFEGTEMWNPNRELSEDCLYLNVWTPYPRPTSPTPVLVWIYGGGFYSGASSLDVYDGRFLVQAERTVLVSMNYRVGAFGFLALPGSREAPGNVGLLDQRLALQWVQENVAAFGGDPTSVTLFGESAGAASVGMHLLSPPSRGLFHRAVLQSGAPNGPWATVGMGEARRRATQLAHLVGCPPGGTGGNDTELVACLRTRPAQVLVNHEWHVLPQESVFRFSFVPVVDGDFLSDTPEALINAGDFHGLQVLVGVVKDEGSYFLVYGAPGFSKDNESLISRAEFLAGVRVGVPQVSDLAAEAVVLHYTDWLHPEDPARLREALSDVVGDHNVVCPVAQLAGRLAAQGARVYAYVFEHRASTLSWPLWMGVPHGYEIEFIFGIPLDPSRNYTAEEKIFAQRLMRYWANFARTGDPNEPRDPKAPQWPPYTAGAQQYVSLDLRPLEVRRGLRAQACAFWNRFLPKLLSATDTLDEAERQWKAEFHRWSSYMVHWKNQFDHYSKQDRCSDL

[8] = biological target: enzymes (Bioprint panel) (Homo sapiens, UniProt O76074); experiment: biochemical; settings: PDE5 (h) (non-selective); 10 μM; read-out: % Inhibition of Control Values
[9] = biological target: enzymes (Bioprint panel) (Rattus norvegicus, UniProt P21396); experiment: biochemical; settings: MAO-A (antagonist radioligand); 10 μM; read-out: % Inhibition of Control Values
[10] = biological target: enzymes (Bioprint panel) (Homo sapiens, UniProt P06213); experiment: biochemical; settings: IRK (h) (InsR); 10 μM; read-out: % Inhibition of Control Values
Sequence of enzymes (Bioprint panel) (Homo sapiens, UniProt P06213) (P06213 28-1382): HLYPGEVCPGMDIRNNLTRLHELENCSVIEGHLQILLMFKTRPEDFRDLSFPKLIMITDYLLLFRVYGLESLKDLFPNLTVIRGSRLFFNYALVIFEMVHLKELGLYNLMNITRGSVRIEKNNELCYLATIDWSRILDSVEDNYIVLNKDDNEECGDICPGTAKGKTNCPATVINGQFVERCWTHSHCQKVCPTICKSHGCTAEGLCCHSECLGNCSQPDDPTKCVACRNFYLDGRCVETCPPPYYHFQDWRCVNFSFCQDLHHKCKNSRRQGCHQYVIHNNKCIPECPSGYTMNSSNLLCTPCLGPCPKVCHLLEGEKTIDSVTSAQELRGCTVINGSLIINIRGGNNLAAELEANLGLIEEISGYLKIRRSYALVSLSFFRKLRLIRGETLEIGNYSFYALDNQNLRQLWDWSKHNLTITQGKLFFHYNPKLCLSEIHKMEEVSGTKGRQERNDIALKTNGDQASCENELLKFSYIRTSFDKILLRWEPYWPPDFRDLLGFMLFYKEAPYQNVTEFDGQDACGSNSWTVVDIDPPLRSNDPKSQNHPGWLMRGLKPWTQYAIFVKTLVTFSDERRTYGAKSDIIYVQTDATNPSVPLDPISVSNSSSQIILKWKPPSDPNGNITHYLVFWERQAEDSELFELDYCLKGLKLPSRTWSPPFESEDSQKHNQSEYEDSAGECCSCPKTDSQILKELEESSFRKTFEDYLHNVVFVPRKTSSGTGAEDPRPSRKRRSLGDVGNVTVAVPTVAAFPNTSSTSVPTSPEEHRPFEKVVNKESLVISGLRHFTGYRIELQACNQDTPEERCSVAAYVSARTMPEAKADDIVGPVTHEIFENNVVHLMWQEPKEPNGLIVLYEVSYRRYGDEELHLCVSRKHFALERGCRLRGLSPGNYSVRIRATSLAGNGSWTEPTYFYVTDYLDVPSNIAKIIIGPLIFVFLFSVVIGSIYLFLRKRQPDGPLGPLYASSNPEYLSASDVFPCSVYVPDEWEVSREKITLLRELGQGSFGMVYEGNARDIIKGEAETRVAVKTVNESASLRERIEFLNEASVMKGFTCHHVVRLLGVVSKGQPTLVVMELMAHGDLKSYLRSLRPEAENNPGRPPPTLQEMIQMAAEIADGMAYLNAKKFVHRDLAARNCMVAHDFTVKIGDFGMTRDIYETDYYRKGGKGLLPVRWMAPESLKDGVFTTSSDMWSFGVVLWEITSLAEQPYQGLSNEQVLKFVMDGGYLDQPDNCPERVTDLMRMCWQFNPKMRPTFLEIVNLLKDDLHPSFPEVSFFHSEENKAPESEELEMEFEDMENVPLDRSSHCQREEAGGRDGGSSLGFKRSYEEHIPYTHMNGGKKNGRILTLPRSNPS

[11] = biological target: enzymes (Bioprint panel) (Homo sapiens, UniProt P14780); experiment: biochemical; settings: MMP-9 (h); 10 μM; read-out: % Inhibition of Control Values
Sequence of enzymes (Bioprint panel) (Homo sapiens, UniProt P14780) (P14780 94-707): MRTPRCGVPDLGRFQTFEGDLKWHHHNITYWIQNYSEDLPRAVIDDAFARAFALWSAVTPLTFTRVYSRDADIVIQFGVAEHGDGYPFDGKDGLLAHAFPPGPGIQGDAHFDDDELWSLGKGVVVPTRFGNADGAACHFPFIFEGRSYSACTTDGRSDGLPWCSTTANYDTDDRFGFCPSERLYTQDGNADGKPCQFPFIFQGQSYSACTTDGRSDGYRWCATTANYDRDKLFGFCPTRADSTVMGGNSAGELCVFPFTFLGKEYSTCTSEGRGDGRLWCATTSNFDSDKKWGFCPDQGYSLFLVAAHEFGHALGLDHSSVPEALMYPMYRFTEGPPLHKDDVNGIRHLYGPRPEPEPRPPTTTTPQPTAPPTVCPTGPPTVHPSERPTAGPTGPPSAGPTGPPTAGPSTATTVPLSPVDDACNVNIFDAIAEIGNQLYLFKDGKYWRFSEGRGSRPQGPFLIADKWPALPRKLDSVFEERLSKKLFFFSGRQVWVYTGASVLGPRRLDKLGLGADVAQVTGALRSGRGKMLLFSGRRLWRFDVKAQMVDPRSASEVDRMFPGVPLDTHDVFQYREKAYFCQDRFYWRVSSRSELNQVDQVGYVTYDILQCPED

[12] = biological target: enzymes (Bioprint panel) (Mus musculus, UniProt P29477); experiment: biochemical; settings: inducible NOS; 10 μM; read-out: % Inhibition of Control Values
[13] = biological target: enzymes (Bioprint panel) (Homo sapiens, UniProt P42574); experiment: biochemical; settings: caspase-3 (h); 10 μM; read-out: % Inhibition of Control Values
[14] = system: T2, enzymes (Bioprint panel); experiment: biochemical; settings: ATPase (Na+/K+); 10 μM
T2 construct: other: ATPase (Na+/K+); 10 μM

[15] = system: enzymes (Bioprint panel); experiment: biochemical; settings: COMT (catechol- O-methyl transferase); 10 μM
[16] = biological target: enzymes (Bioprint panel) (Homo sapiens, UniProt Q16539); experiment: biochemical; settings: p38alpha kinase (h); 10 μM; read-out: % Inhibition of Control Values
Sequence of enzymes (Bioprint panel) (Homo sapiens, UniProt Q16539) (Q16539 whole entry): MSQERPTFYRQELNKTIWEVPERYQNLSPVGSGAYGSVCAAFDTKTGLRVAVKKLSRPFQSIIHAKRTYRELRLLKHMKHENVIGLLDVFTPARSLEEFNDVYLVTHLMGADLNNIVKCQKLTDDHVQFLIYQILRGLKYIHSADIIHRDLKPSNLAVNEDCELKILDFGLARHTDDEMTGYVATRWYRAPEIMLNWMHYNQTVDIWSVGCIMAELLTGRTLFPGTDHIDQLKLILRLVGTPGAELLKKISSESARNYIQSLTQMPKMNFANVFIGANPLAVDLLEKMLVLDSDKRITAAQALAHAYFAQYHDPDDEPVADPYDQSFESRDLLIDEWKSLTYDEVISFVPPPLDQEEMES

[17] = biological target: T3, enzymes (Bioprint panel) (UniProt A0ABM2YAB8); experiment: biochemical; settings: MT3 (ML2) (agonist radioligand); 10 μM
T3 construct: other: MT3 (ML2) (agonist radioligand); 10 μM

[18] = biological target: enzymes (Bioprint panel) (Homo sapiens, UniProt P24941); experiment: biochemical; settings: CDK2 (h) (cycA); 10 μM; read-out: % Inhibition of Control Values
[19] = biological target: T4, enzymes (Bioprint panel) (Bos taurus, UniProt P11541+P23439); experiment: biochemical; settings: PDE6 (non-selective); 10 μM; read-out: % Inhibition of Control Values
T4 construct: other: PDE6 (non-selective); 10 μM

[20] = biological target: enzymes (Bioprint panel) (Homo sapiens, UniProt P08253); experiment: biochemical; settings: MMP-2 (h); 10 μM; read-out: % Inhibition of Control Values
[21] = biological target: T5, enzymes (Bioprint panel) (Homo sapiens, UniProt Q08499); experiment: biochemical; settings: PDE4D2 (h); 10 μM; read-out: % Inhibition of Control Values
T5 construct: other: PDE4D2 (h); 10 μM; PDE4D2 (h)
T5 sequence (Q08499 303-809): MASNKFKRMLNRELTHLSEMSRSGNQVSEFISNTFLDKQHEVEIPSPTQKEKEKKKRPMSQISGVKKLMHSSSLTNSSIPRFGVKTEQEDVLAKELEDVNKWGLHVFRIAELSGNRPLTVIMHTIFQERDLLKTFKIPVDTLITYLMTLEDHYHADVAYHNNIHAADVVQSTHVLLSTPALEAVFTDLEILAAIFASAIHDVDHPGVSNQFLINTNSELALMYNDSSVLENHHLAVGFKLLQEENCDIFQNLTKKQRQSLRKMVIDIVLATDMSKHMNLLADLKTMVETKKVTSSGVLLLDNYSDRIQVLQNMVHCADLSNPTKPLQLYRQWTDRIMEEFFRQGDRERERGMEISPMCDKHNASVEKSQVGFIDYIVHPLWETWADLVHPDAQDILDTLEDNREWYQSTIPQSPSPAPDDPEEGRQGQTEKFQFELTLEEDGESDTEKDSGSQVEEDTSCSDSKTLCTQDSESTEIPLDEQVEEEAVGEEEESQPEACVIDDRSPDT

[22] = biological target: enzymes (Bioprint panel) (Homo sapiens, UniProt Q9BYF1); experiment: biochemical; settings: ACE-2 (h); 10 μM; read-out: % Inhibition of Control Values
[23] = biological target: enzymes (Bioprint panel) (Homo sapiens, UniProt P00519); experiment: biochemical; settings: Abl kinase (h); 10 μM; read-out: % Inhibition of Control Values
[24] = biological target: enzymes (Bioprint panel) (Homo sapiens, UniProt Q13370); experiment: biochemical; settings: PDE3B (h); 10 μM; read-out: % Inhibition of Control Values
[25] = system: primary human keratinocytes; experiment: Keratinocyte cell viability, IL-8 assay (assay number 1244); type: cell-based; settings: Homo sapiens, Keratinocyte; read-out: Inhibition of cell viability, Rel EC50
[26] = as above; type: cell-based, human; settings: human, primary human keratinocytes induced with IL-17A and TNFα; read-out: Inhibition of cell viability, Max Effect
[27] = biological target: cholecystokinin CCK1 (CCKA) (h) (Homo sapiens, UniProt P32238); experiment: Bioprint radioligand binding assay
Sequence of cholecystokinin CCK1 (CCKA) (h) (P32238 whole entry): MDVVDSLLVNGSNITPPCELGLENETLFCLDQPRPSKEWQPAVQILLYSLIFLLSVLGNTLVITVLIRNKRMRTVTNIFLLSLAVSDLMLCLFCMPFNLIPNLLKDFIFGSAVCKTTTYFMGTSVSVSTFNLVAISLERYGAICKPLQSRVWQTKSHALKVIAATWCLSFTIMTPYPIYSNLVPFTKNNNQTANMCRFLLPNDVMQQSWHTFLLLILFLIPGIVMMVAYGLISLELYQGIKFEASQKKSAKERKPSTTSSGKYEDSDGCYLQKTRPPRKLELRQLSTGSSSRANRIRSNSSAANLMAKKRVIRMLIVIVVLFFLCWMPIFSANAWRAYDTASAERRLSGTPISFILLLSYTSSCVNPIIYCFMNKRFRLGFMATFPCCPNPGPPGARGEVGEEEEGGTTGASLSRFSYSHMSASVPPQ

[28] = biological target: SUV39H2 (h) (Homo sapiens, UniProt Q9H5I1); settings: read-out: Reference: (IC50 not given); cited from earlier work
Sequence of SUV39H2 (h) (Q9H5I1 whole entry): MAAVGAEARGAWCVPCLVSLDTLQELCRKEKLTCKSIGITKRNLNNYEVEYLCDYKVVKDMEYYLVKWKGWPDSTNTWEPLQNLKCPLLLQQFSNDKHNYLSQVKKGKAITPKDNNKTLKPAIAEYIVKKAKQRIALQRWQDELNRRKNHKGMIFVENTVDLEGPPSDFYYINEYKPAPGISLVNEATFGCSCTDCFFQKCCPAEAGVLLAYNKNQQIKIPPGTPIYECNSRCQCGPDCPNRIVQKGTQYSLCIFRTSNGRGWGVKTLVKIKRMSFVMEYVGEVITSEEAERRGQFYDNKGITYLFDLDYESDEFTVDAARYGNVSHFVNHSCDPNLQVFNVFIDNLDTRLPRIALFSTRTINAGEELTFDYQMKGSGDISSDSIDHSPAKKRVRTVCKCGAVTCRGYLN

Sequence of enzymes (Bioprint panel) (Homo sapiens, UniProt P43403) (P43403 whole entry): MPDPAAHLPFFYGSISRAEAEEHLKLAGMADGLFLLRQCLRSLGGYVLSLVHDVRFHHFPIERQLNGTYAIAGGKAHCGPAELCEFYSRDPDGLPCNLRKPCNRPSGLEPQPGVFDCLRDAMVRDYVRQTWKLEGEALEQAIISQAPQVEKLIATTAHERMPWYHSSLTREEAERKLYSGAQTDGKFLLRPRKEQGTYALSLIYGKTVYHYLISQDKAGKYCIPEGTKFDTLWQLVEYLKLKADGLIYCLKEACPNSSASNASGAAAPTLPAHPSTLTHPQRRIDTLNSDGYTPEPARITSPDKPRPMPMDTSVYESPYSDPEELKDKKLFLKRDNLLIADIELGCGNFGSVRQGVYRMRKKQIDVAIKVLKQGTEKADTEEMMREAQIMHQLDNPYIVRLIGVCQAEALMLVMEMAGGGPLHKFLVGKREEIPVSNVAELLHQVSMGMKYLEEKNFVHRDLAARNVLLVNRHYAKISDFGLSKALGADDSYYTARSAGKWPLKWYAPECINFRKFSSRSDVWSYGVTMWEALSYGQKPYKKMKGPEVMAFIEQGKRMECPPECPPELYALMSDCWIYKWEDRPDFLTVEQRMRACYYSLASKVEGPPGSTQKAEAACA

Question: For `CC(C)=CCC[C@H](CO)[C@@H]1CC[C@@H](C)c2c1cc(C)c(O)c2O` [Compound 1, 7,8,18-trihydroxyserrulat-14-ene], which Emax ([1]; read-out: Inhibition of cell proliferation, Max Effect) is on record?
Answer: 123%

Question: What about the EC50 ([1]; read-out: Inhibition of cell proliferation, Rel EC50) of the same molecule?
Answer: 587 nM

Question: And the inhibition at 10 µM [2]?
Answer: 33%

Question: And the inhibition at 10 µM [3]?
Answer: 43%

Question: What about the inhibition at 10 µM [4] of the same molecule?
Answer: 6%

Question: And the inhibition at 10 µM [5]?
Answer: 0%

Question: And the inhibition at 10 µM [6]?
Answer: 14%

Question: And the inhibition at 10 µM [7]?
Answer: 32%

Question: What about the inhibition at 10 µM [8] of the same molecule?
Answer: 11%

Question: And the inhibition at 10 µM [9]?
Answer: 15%

Question: What about the inhibition at 10 µM [10] of the same molecule?
Answer: -15%

Question: And the inhibition at 10 µM [11]?
Answer: 1%

Question: What about the inhibition at 10 µM [12] of the same molecule?
Answer: -1%

Question: And the inhibition at 10 µM [13]?
Answer: -3%

Question: And the “% Inhibition of Control Values” [14]?
Answer: 22%

Question: What about the “% Inhibition of Control Values” [15] of the same molecule?
Answer: −6%

Question: And the inhibition at 10 µM [16]?
Answer: 4%

Question: And the “% Inhibition of Control Values” [17]?
Answer: 31%

Question: What about the inhibition at 10 µM [18] of the same molecule?
Answer: 12%

Question: What about the inhibition at 10 µM [19] of the same molecule?
Answer: 4%

Question: What about the inhibition at 10 µM [20] of the same molecule?
Answer: 0%

Question: And the inhibition at 10 µM [21]?
Answer: 55%

Question: And the inhibition at 10 µM [22]?
Answer: -3%

Question: What about the inhibition at 10 µM [23] of the same molecule?
Answer: 14%

Question: What about the inhibition at 10 µM [24] of the same molecule?
Answer: -3%

Question: What about the EC50 [25] of the same molecule?
Answer: 246 nM

Question: What about the cytotoxicity [26] of the same molecule?
Answer: 101%

Question: What about the inhibition at 10 µM ([27]; CHOLECYSTOKININ CCK1 (CCKA) (h) (agonist radioligand), read-out: % Inhibition of Control Specific Binding) of the same molecule?
Answer: 81%

Question: And the inhibition at 10 µM ([27]; read-out: % inhibition of control specific binding)?
Answer: 81%

Question: With `Nc1ncnc2c1ncn2[C@@H]1O[C@H](CSCC[C@H](N)C(=O)O)[C@@H](O)[C@H]1O` [SAH] as the molecule, how does the IC50 [28] read?
Answer: 24000 nM

From patent publication US11331299B2, “Medicinal use of serrulatane diterpenes” (The University of Sydney, priority 2016, dated 2022)
